Test system: MV-4-11 cells
Experiment: Gene expression microarray analysis (Affymetrix PrimeView) and GSEA
Type: cell-based, human
Design: RFU PODN (11730768_x_at) / Fold change /veh PODN (11730768_x_at) / RFU LINC00158 (11744669_a_at) / Fold change /veh LINC00158 (11744669_a_at) / RFU DUSP10 (11751237_a_at) / Fold change /veh DUSP10 (11751237_a_at) / RFU ID3 (11757404_x_at) / Fold change /veh ID3 (11757404_x_at) / RFU PLEKHG5 (11737974_s_at) / Fold change /veh PLEKHG5 (11737974_s_at) / RFU LRRC4B (11730491_at) / Fold change /veh LRRC4B (11730491_at) / RFU GIMAP4 (11747438_a_at) / Fold change /veh GIMAP4 (11747438_a_at) / RFU KRT8 (11758183_x_at) / Fold change /veh KRT8 (11758183_x_at) / RFU CNN1 (11734310_a_at) / Fold change /veh CNN1 (11734310_a_at) / RFU VPS37D (11726825_at) / Fold change /veh VPS37D (11726825_at) / RFU C10orf10 (11716522_x_at) / Fold change /veh C10orf10 (11716522_x_at) / RFU KIR2DL2 /// KIR2DL4 /// KIR2DL5A /// KIR2DL5B /// KIR2DS1 /// KIR2DS2 /// KIR2DS3 /// KIR2DS4 /// KIR3DL3 /// KIR3DL3 /// KIR3DS1 (11738374_at) / Fold change /veh KIR2DL2 /// KIR2DL4 /// KIR2DL5A /// KIR2DL5B /// KIR2DS1 /// KIR2DS2 /// KIR2DS3 /// KIR2DS4 /// KIR3DL3 /// KIR3DL3 /// KIR3DS1 (11738374_at) / RFU C1QL1 (11718748_at) / Fold change /veh C1QL1 (11718748_at) / RFU TMPRSS4 (11747572_a_at) / Fold change /veh TMPRSS4 (11747572_a_at) / RFU HAMP (11756126_x_at) / Fold change /veh HAMP (11756126_x_at) / RFU RNFT2 (11725882_a_at) / Fold change /veh RNFT2 (11725882_a_at) / RFU NR4A2 (11747474_a_at) / Fold change /veh NR4A2 (11747474_a_at) / RFU ABCC12 (11746883_a_at) / Fold change /veh ABCC12 (11746883_a_at) / RFU TMEM136 (11760407_x_at) / Fold change /veh TMEM136 (11760407_x_at) / RFU CLDN22 /// WWC2 (11732394_at) / Fold change /veh CLDN22 /// WWC2 (11732394_at) / RFU HLA-DPB1 (11760878_x_at) / Fold change /veh HLA-DPB1 (11760878_x_at) / RFU SPINT1 (11716480_a_at) / Fold change /veh SPINT1 (11716480_a_at) / RFU GAP43 (11754022_s_at) / Fold change /veh GAP43 (11754022_s_at) / RFU A4GNT (11735810_at) / Fold change /veh A4GNT (11735810_at) / RFU PRB3 (11715151_x_at) / Fold change /veh PRB3 (11715151_x_at) / RFU TUBB4B (11761932_at) / Fold change /veh TUBB4B (11761932_at) / RFU CAPN14 (11732068_a_at) / Fold change /veh CAPN14 (11732068_a_at) / RFU TMCC2 (11721928_a_at) / Fold change /veh TMCC2 (11721928_a_at) / RFU IRGQ (11745062_a_at) / Fold change /veh IRGQ (11745062_a_at) / RFU FAM174B (11720279_a_at) / Fold change /veh FAM174B (11720279_a_at) / RFU TMPRSS4 (11748680_a_at) / Fold change /veh TMPRSS4 (11748680_a_at) / RFU FAM212B (11763350_a_at) / Fold change /veh FAM212B (11763350_a_at) / RFU PLEKHG5 (11743358_a_at) / Fold change /veh PLEKHG5 (11743358_a_at) / RFU ZSCAN30 (11745921_a_at) / Fold change /veh ZSCAN30 (11745921_a_at) / RFU CMKLR1 (11741424_a_at) / Fold change /veh CMKLR1 (11741424_a_at) / RFU LOC101060620 /// MAPK8IP1 (11723275_at) / Fold change /veh LOC101060620 /// MAPK8IP1 (11723275_at) / RFU SPTSSB (11747773_x_at) / Fold change /veh SPTSSB (11747773_x_at) / RFU PRSS12 (11739890_at) / Fold change /veh PRSS12 (11739890_at) / RFU BIN1 (11741810_x_at) / Fold change /veh BIN1 (11741810_x_at) / RFU WNT11 (11732464_a_at) / Fold change /veh WNT11 (11732464_a_at) / RFU C10orf10 (11716521_a_at) / Fold change /veh C10orf10 (11716521_a_at) / RFU C5orf56 (11738089_at) / Fold change /veh C5orf56 (11738089_at) / RFU CYB561 (11721691_x_at) / Fold change /veh CYB561 (11721691_x_at) / RFU ANKRD19P (11752326_a_at) / Fold change /veh ANKRD19P (11752326_a_at) / RFU OR2T12 /// OR2T33 /// OR2T8 (11738714_s_at) / Fold change /veh OR2T12 /// OR2T33 /// OR2T8 (11738714_s_at) / RFU VCAN (11748164_a_at) / Fold change /veh VCAN (11748164_a_at) / RFU JSRP1 (11732532_at) / Fold change /veh JSRP1 (11732532_at) / RFU KRTAP10-11 (11738290_x_at) / Fold change /veh KRTAP10-11 (11738290_x_at) / RFU MYO3A (11730013_a_at) / Fold change /veh MYO3A (11730013_a_at) / RFU EBF3 (11725865_a_at) / Fold change /veh EBF3 (11725865_a_at) / RFU CAMK2N1 (11719241_x_at) / Fold change /veh CAMK2N1 (11719241_x_at) / RFU C5orf56 (11738088_a_at) / Fold change /veh C5orf56 (11738088_a_at) / RFU OLFML3 (11715873_a_at) / Fold change /veh OLFML3 (11715873_a_at) / RFU LOC100653217 /// NTM (11731650_a_at) / Fold change /veh LOC100653217 /// NTM (11731650_a_at) / RFU MAPK11 (11762145_a_at) / Fold change /veh MAPK11 (11762145_a_at) / RFU FIZ1 (11724087_x_at) / Fold change /veh FIZ1 (11724087_x_at) / RFU OASL (11726364_x_at) / Fold change /veh OASL (11726364_x_at) / RFU SOX15 (11748057_x_at) / Fold change /veh SOX15 (11748057_x_at) / RFU CD79A (11719716_a_at) / Fold change /veh CD79A (11719716_a_at) / RFU HIST1H1D (11736915_at) / Fold change /veh HIST1H1D (11736915_at) / RFU CASKIN2 (11723855_a_at) / Fold change /veh CASKIN2 (11723855_a_at) / RFU LOC730098 (11760151_x_at) / Fold change /veh LOC730098 (11760151_x_at) / RFU OR4N2 (11742367_at) / Fold change /veh OR4N2 (11742367_at) / RFU PRRT2 (11749266_a_at) / Fold change /veh PRRT2 (11749266_a_at) / RFU SNX32 (11753110_a_at) / Fold change /veh SNX32 (11753110_a_at) / RFU CDHR5 (11726645_a_at) / Fold change /veh CDHR5 (11726645_a_at) / RFU RCAN1 (11760418_a_at) / Fold change /veh RCAN1 (11760418_a_at) / RFU FAM167A (11723789_a_at) / Fold change /veh FAM167A (11723789_a_at) / RFU FAM26E (11764081_at) / Fold change /veh FAM26E (11764081_at) / RFU ISYNA1 (11749810_s_at) / Fold change /veh ISYNA1 (11749810_s_at) / RFU ACY1 (11761880_at) / Fold change /veh ACY1 (11761880_at) / RFU 11764098_at / Fold change /veh 11764098_at / RFU SAMD14 (11745864_x_at) / Fold change /veh SAMD14 (11745864_x_at) / RFU NPB (11741838_a_at) / Fold change /veh NPB (11741838_a_at) / RFU TMPRSS6 (11731388_a_at) / Fold change /veh TMPRSS6 (11731388_a_at) / RFU KRTAP10-2 (11738614_at) / Fold change /veh KRTAP10-2 (11738614_at) / RFU ARHGAP8 /// PRR5-ARHGAP8 (11727945_x_at) / Fold change /veh ARHGAP8 /// PRR5-ARHGAP8 (11727945_x_at) / RFU KRTAP5-7 /// NADSYN1 (11734609_at) / Fold change /veh KRTAP5-7 /// NADSYN1 (11734609_at) / RFU RASL12 (11751679_a_at) / Fold change /veh RASL12 (11751679_a_at) / RFU CDKN2B (11736163_a_at) / Fold change /veh CDKN2B (11736163_a_at) / RFU PRF1 (11729649_at) / Fold change /veh PRF1 (11729649_at) / RFU, ZNF638 /// ZNF638-IT1 / Fold change vs veh, ZNF638 /// ZNF638-IT1 / RFU, PANK3 / Fold change vs veh, PANK3 / RFU, SH3YL1 / Fold change vs veh, SH3YL1 / RFU, ZEB2 / Fold change vs veh, ZEB2 / RFU, NRIP1 / Fold change vs veh, NRIP1 / RFU, PTTG1IP / Fold change vs veh, PTTG1IP / RFU, CAPN2 / Fold change vs veh, CAPN2 / RFU, MED14 / Fold change vs veh, MED14 / RFU, SNORA58 / Fold change vs veh, SNORA58 / RFU, C1orf63 / Fold change vs veh, C1orf63 / RFU, LRRFIP1 / Fold change vs veh, LRRFIP1 / RFU, NDUFAF7 / Fold change vs veh, NDUFAF7 / RFU, SLC12A2 / Fold change vs veh, SLC12A2 / RFU, IBTK / Fold change vs veh, IBTK / RFU, ESF1 / Fold change vs veh, ESF1 / Fold change vs veh, TMEM50B / RFU, TAOK1 / Fold change vs veh, TAOK1 / RFU, ACBD3 / Fold change vs veh, ACBD3 / RFU, TMA16 / Fold change vs veh, TMA16 / RFU, RWDD3 / Fold change vs veh, RWDD3 / RFU, BCAT1 / Fold change vs veh, BCAT1 / RFU, EDEM3 / Fold change vs veh, EDEM3 / RFU, TMEM33 / Fold change vs veh, TMEM33 / RFU, WDR75 / Fold change vs veh, WDR75 / RFU, AHCTF1 / Fold change vs veh, AHCTF1 / RFU, TFRC / Fold change vs veh, TFRC / RFU, ZDHHC17 / Fold change vs veh, ZDHHC17 / RFU, NOM1 / Fold change vs veh, NOM1 / RFU, ARL8B / Fold change vs veh, ARL8B / RFU, ZBTB11 / Fold change vs veh, ZBTB11 / RFU, TAMM41 / Fold change vs veh, TAMM41 / RFU, KIAA1704 /// LOC100996395 / Fold change vs veh, KIAA1704 /// LOC100996395 / RFU, ING1 / Fold change vs veh, ING1 / RFU, TRMT61B / Fold change vs veh, TRMT61B / RFU, FUBP3 / Fold change vs veh, FUBP3 / RFU, TP53 / Fold change vs veh, TP53 / RFU, TNKS2 / Fold change vs veh, TNKS2 / RFU, ZFP14 / Fold change vs veh, ZFP14 / RFU, ACTR2 / Fold change vs veh, ACTR2 / RFU, PPP3R1 / Fold change vs veh, PPP3R1 / RFU, PIK3R1 / Fold change vs veh, PIK3R1 / RFU, HNRNPA1 / Fold change vs veh, HNRNPA1 / RFU, RNF170 / Fold change vs veh, RNF170 / RFU, ZNF28 / Fold change vs veh, ZNF28 / RFU, RNGTT / Fold change vs veh, RNGTT / RFU, OGT / Fold change vs veh, OGT / RFU, BRD1 / Fold change vs veh, BRD1 / RFU, MARS / Fold change vs veh, MARS / RFU, ZNF655 / Fold change vs veh, ZNF655 / RFU, FAHD1 / Fold change vs veh, FAHD1 / RFU, BDP1 / Fold change vs veh, BDP1 / RFU, LRRCC1 / Fold change vs veh, LRRCC1 / RFU, ARID1A / Fold change vs veh, ARID1A / RFU, ZNF146 / Fold change vs veh, ZNF146 / RFU, ZNF330 / Fold change vs veh, ZNF330 / RFU, GPN3 / Fold change vs veh, GPN3 / RFU, C9orf123 / Fold change vs veh, C9orf123 / RFU, N4BP2L2 / Fold change vs veh, N4BP2L2 / RFU, ARFIP1 / Fold change vs veh, ARFIP1 / RFU, FAM179B / Fold change vs veh, FAM179B / RFU, BCL10 / Fold change vs veh, BCL10 / RFU, UHRF1BP1L / Fold change vs veh, UHRF1BP1L / RFU, BET1 / Fold change vs veh, BET1 / RFU, CNOT2 / Fold change vs veh, CNOT2 / RFU, ZNF268 / Fold change vs veh, ZNF268 / Fold change vs veh, ZNF507 / RFU, DGCR2 / Fold change vs veh, DGCR2 / RFU, WDSUB1 / Fold change vs veh, WDSUB1 / Fold change vs veh, HSP90B1 /// MIR3652 / RFU, ADSS / Fold change vs veh, ADSS / RFU, GK / Fold change vs veh, GK / RFU, ZNF148 / Fold change vs veh, ZNF148 / RFU, TAF9 / Fold change vs veh, TAF9 / RFU, SLC1A5 / Fold change vs veh, SLC1A5 / RFU, SLMO2 / Fold change vs veh, SLMO2 / RFU, ABCC4 / Fold change vs veh, ABCC4 / RFU, LOC101060439 /// RAP1B / Fold change vs veh, LOC101060439 /// RAP1B / RFU, RFX7 / Fold change vs veh, RFX7 / RFU, GTPBP10 / Fold change vs veh, GTPBP10 / RFU, CNEP1R1 / Fold change vs veh, CNEP1R1 / RFU, BIVM-ERCC5 /// ERCC5 / Fold change vs veh, BIVM-ERCC5 /// ERCC5 / RFU, ILF3 / Fold change vs veh, ILF3 / RFU 11762660_at / Fold change /veh 11762660_at / RFU VCAN (11757783_s_at) / Fold change /veh VCAN (11757783_s_at) / RFU DDX43 (11728927_at) / Fold change /veh DDX43 (11728927_at) / RFU KRT8 (11758188_x_at) / Fold change /veh KRT8 (11758188_x_at) / RFU NKD1 (11759106_at) / Fold change /veh NKD1 (11759106_at) / RFU SRD5A1 (11742802_a_at) / Fold change /veh SRD5A1 (11742802_a_at) / RFU TPSAB1 /// TPSB2 (11721975_s_at) / Fold change /veh TPSAB1 /// TPSB2 (11721975_s_at) / RFU GSTM3 (11746129_a_at) / Fold change /veh GSTM3 (11746129_a_at) / RFU IL23R (11737362_x_at) / Fold change /veh IL23R (11737362_x_at) / RFU TMEM51 (11727254_a_at) / Fold change /veh TMEM51 (11727254_a_at) / RFU PIWIL2 (11732686_x_at) / Fold change /veh PIWIL2 (11732686_x_at) / RFU ORM1 (11744905_x_at) / Fold change /veh ORM1 (11744905_x_at) / RFU CCDC152 (11743942_at) / Fold change /veh CCDC152 (11743942_at) / RFU ECM1 (11717891_a_at) / Fold change /veh ECM1 (11717891_a_at) / RFU IL23R (11748794_a_at) / Fold change /veh IL23R (11748794_a_at) / RFU TNFAIP8L3 (11732012_x_at) / Fold change /veh TNFAIP8L3 (11732012_x_at) / RFU MBOAT4 (11741988_at) / Fold change /veh MBOAT4 (11741988_at) / RFU 11764193_at / Fold change /veh 11764193_at / RFU TMEM53 (11763286_at) / Fold change /veh TMEM53 (11763286_at) / RFU MAGEB2 (11727129_at) / Fold change /veh MAGEB2 (11727129_at) / RFU TMEM200A (11744735_a_at) / Fold change /veh TMEM200A (11744735_a_at) / RFU CCDC152 (11751479_a_at) / Fold change /veh CCDC152 (11751479_a_at) / RFU FAM211A (11726209_a_at) / Fold change /veh FAM211A (11726209_a_at) / RFU RGS16 (11746705_a_at) / Fold change /veh RGS16 (11746705_a_at) / RFU VCAN (11755009_s_at) / Fold change /veh VCAN (11755009_s_at) / RFU RHOB (11743442_s_at) / Fold change /veh RHOB (11743442_s_at) / RFU RGS16 (11720943_a_at) / Fold change /veh RGS16 (11720943_a_at) / RFU RGS16 (11720944_at) / Fold change /veh RGS16 (11720944_at) / RFU, VPS4B / Fold change vs veh, VPS4B / RFU, CREB1 / Fold change vs veh, CREB1 / RFU, DNAJC13 / Fold change vs veh, DNAJC13 / RFU, GNAQ / Fold change vs veh, GNAQ / RFU, CDK5R1 / Fold change vs veh, CDK5R1 / RFU, ZRANB3 / Fold change vs veh, ZRANB3 / RFU, CUL4A / Fold change vs veh, CUL4A / RFU, CCNY / Fold change vs veh, CCNY / RFU, UFL1 / Fold change vs veh, UFL1 / RFU, COG3 / Fold change vs veh, COG3 / RFU, DIAPH2 / Fold change vs veh, DIAPH2 / RFU, SKA2 / Fold change vs veh, SKA2 / RFU, AFF3 / Fold change vs veh, AFF3 / RFU, LMF1 / Fold change vs veh, LMF1 / RFU, IPO11 / Fold change vs veh, IPO11 / RFU, DFFB / Fold change vs veh, DFFB / RFU, FOXP1 / Fold change vs veh, FOXP1 / RFU, CARD8 / Fold change vs veh, CARD8 / RFU, STRN3 / Fold change vs veh, STRN3 / RFU, ADK / Fold change vs veh, ADK / RFU, RASSF2 / Fold change vs veh, RASSF2 / RFU, WIPF1 / Fold change vs veh, WIPF1 / RFU, LARP1B / Fold change vs veh, LARP1B / RFU, RASA1 / Fold change vs veh, RASA1 / RFU, RB1 / Fold change vs veh, RB1 / RFU, PPFIA1 / Fold change vs veh, PPFIA1 / RFU, MAT2A / Fold change vs veh, MAT2A / RFU, CCT5 / Fold change vs veh, CCT5 / RFU, WDR92 / Fold change vs veh, WDR92 / RFU, CUX1 / Fold change vs veh, CUX1 / RFU, TTC7A / Fold change vs veh, TTC7A / RFU, TMEM135 / Fold change vs veh, TMEM135 / RFU, DEPTOR / Fold change vs veh, DEPTOR / RFU, CPM / Fold change vs veh, CPM / RFU, DNAJB6 / Fold change vs veh, DNAJB6 / RFU, CACNA2D3 / Fold change vs veh, CACNA2D3 / RFU, DTX4 / Fold change vs veh, DTX4 / RFU, TFCP2 / Fold change vs veh, TFCP2 / RFU, GMCL1 /// GMCL1P1 / Fold change vs veh, GMCL1 /// GMCL1P1 / RFU, AEBP2 / Fold change vs veh, AEBP2 / RFU, SNHG1 /// SNORD22 /// SNORD25 /// SNORD26 /// SNORD27 /// SNORD28 /// SNORD29 /// SNORD31 / Fold change vs veh, SNHG1 /// SNORD22 /// SNORD25 /// SNORD26 /// SNORD27 /// SNORD28 /// SNORD29 /// SNORD31 / Fold change (Aza/veh), C12orf56 (ProbeSet 11735607_a_at) / Fold change (ACY-1035/veh), C12orf56 (ProbeSet 11735607_a_at) / Fold change (Aza/veh), FGFR1OP (ProbeSet 11751329_s_at) / Fold change (ACY-1035/veh), FGFR1OP (ProbeSet 11751329_s_at) / Fold change (Aza/veh), VPS36 (ProbeSet 11739960_a_at) / Fold change (ACY-1035/veh), VPS36 (ProbeSet 11739960_a_at) / RFU SYPL1 (11715823_x_at) / Fold change /veh SYPL1 (11715823_x_at) / RFU IGFBP7 (11715501_s_at) / Fold change /veh IGFBP7 (11715501_s_at) / RFU REEP3 (11722064_at) / Fold change /veh REEP3 (11722064_at) / RFU IGLL1 (11728026_x_at) / Fold change /veh IGLL1 (11728026_x_at): dose or concentration left out as unconfirmed
Conditions: ProbeSet 11725141_a_at; LIST B

Nc1ccc(-c2cccs2)cc1NC(=O)c1ccc2c(c1)cc(C1CC1)n2CCN1CCOCC1 [ACY-1035]
RFU, FUBP3: 490.19 RFU
